# According to patent US20030203963A1, “Antimicrobial agent” (priority 2001, published 2003):
# What was measured:
# [1] = test system: Br. thermosphacta CRA7883; assay: Bioscreen growth inhibition test; format: cell-based, Brochothrix thermosphacta; conditions: BS010420, 72 h at 25° C., APP20010213
# Protocol: For broth cultures and Bioscreen testing most bacteria were grown in Brain Heart Infusion (BHI, Oxoid, pH 7.4). Lactobacillus sake A10 was grown in de Man, Rogosa, Sharpe medium ([…], Oxoid). Yeasts were grown in Sabouraud Liquid medium (SLM, Oxoid). Most bacteria were cultured at 30° C. Lactic acid bacteria were grown on solid medium in enriched CO2 atmosphere. Clostridium species were grown in Reinforced Clostridial Medium (RCM) at 37° C. anaerobically. Brochothrix thermosphacta fungi and yeasts were grown at 25° C. Fungi were cultured on Malt Extract Agar (MEA, Oxoid).
# An automated Microbiology Reader Bioscreen C was used to measure growth curves of the strains in the presence and absence of APP. The Bioscreen C measures the development of turbidity (i.e. growth) kinetically by vertical photometry in 200 wells of a honeycomb microtitre plate, simultaneously. The system consists of a Bioscreen C analyser, which is an incubator and measurement unit, integrated with a PC, software (BioLink v 5.30), printer and a ‘Honeycomb 2’ cuvette multiwell plate. Growth curve data can be analysed within the BioLink software or exported to programs such as Excel.
# Broth culture media were dispensed in 270 μl volumes into the wells as directed. […] (depending on the micro-organism under investigation) with readings taken every 20 minutes after the trays were shaken. […]
# Cl. tyrobutyricum 2753 = assay: Sensitivity testing for Clostridium species in cooked meat medium; format: cell-based; conditions: highest level tested 2000 ppm APP20010215, anaerobically at 37° C.
# Protocol: Stock solutions of APP215 (0.5, 1 and 2%) were prepared and filter-sterilised. Cooked meat medium (CMM, Oxoid) was prepared by distributing 1 g of the medium to individual test tubes, which were then filled with 8.9 ml water. After autoclaving 100 μl of the APP stock solutions were added, to give final concentrations of 0, 500, […] and 2000 ppm APP. The tests were inoculated with […] of Clostridium spores, to give an inoculum level of ca. 10 cfu/ml. The tubes were overlaid with 3 ml of 2% agar to maintain anaerobicity. The tests were incubated at 37° C., and examined daily for signs of growth (turbidity, gas production).
# S. cerevisiae 9763 = assay: Chicken soup trial at 20° C.; format: cell-based, Saccharomyces cerevisiae; conditions: 2000 ppm; chicken soup at 20° C., TCSM010430, APP20010213
# From the text: A local supermarket brand of cream of chicken soup was used as a model food system. 600 g packs were purchased from the local supermarket. This was a ‘fresh home-made type’ of soup that was stored in the chill cabinet, with a short shelf life. It was chosen because it is a rich, nutritious food system containing a range of food components including meat, dairy and vegetable.
# Ingredients were labelled as: chicken stock (water, duck fat, chicken, salt, flavourings, yeast extracts, pork gelatine, glucose syrup, vegetable concentrate, milk protein, sugar, malto-dextrin, vegetable oil, citric acid, lactose, chicken fat), ilk, chicken (9%), cream (8%), onion, potato, vegetable oil, modified maize starch, wheat flour, lemon juice, salt, white pepper. pH 5.912. Protein: 3.3%; carbohydrate: 4.7%; fat: 7.2%; fibre: 0.2%; sodium: 0.1%
# For the test the soup was mixed 2:1 in water (to facilitate sampling and mixing) and sterilised by autoclaving at 121° C. for 15 minutes. For each experiment the pH of the soup was recorded; this was between pH 5.79-5.88.
# For TCS010430/20 (incubated at 20° C.) samples were prepared in 18.8 g quantities, to which 1 g of a suitable filter-sterilised APP stock solution was added and an appropriately diluted 0.2 ml inoculum. Great care was again taken to ensure homogeneous distribution of the APP and micro-organisms. […]
# Salm Typhimurium S29 [2] = assay: Test in cooked minced beef slurry; format: cell-based, Salmonella Typhimurium
# Protocol: 1 kg of minced beef, purchased from the local butcher, was mixed with 1 litre of BHI. 200 g portion of this meat slurry was autoclaved. When the meat had cooled, the pH was recorded (pH 6.24), and each pot was inoculated with 2.0 ml of 10^5 spores or cells and the meat re-mixed thoroughly. Each inoculated 200 g pot was distributed as 3×50 g portions. To each pot 1 ml of SDW, 5% or 10% APP (Batch No. APP20010215) was added, and the meat was again mixed thoroughly. An initial viable count was performed, the meat was incubated at 8° C. and sampled twice weekly. The pH of the cooked minced beef slurry was 6.24.
# Salm Typhimurium S29 [3] = assay: Test in cooked minced chicken slurry; format: cell-based, Salmonella Typhimurium; conditions: for Total inhibition for: minced chicken slurry at 8° C., pH 6.42, TCC010704
# Protocol: 1 kg of minced chicken (mainly lean meat) was purchased from the local butcher. This was mixed with 1 litre of BHI, mixed and dispensed as 100 g samples prior to autoclaving. When still warm, the meat was re-mixed thoroughly. When cooked, the meat was inoculated with 1 ml of 10^5 spores or cells (from an overnight broth), and re-mixed. The samples were then divided into 3×25 g portions, to which 0.5 ml of filter-sterilised APP20010215 was added (as 5% or 10% stock solutions) or water. An initial viable count was taken, and the samples then incubated at 8° C. and tested twice weekly. The pH of the chicken slurry was 6.42.
# TAVC = assay: Inoculated test in raw meat; format: cell-based; conditions: 2000 ppm; inoculated raw meat at 8° C., TRM010620; TAVC 10^6 rising to >10^7 cfu/g
# Protocol: Fresh beef steak was purchased from the local butcher, and minced on clean machinery. The raw meat (ca. pH 6.2) was divided into 8×90 samples and inoculated-with 10^3 cfu/ml of test organisms. The meat was mixed thoroughly using a stomacher. 10 g of SDW or 2% APP (Batch number APP20010215) was added, and the meat was again thoroughly mixed. An initial viable count was taken, the meat was incubated at 8° C., and sampled on the following days using non-selective agar (MPCA) and selective agar: XLD for Salmonella; Oxford selective agar (Listeria monocytogenes); and STAA agar (Brochothrix thermosphacta). The pH of the raw meat was pH 5.3.
structure (smiles),measurement,setting,value
"O=C1CC(CO)OC=C1O (stereo not shown) [APP, Ascopyrone P]",APP level causing significant inhibition,[1],2000 ppm
same,APP level causing total inhibition,[1],4000 ppm
same,Growth inhibition,Cl. tyrobutyricum 2753,No growth inhibition
same,Effect on growth,S. cerevisiae 9763,No effect with 2000 ppm
same,Total inhibition for,"Salm Typhimurium S29 [2]; 2000 ppm, minced beef slurry at 8° C., pH 6.24, TCM010619",Total inhibition by 2000 ppm for >44 d
same,Total inhibition (effect on growth of target organism by 2000 ppm APP),Salm Typhimurium S29 [2]; Cooked minced beef slurry at 8° C. pH 6.24,S. Typhimurium
same,Total inhibition for,Salm Typhimurium S29 [3]; 1000 ppm,Total inhibition by 1000 ppm for 25 d
same,Total inhibition for,Salm Typhimurium S29 [3]; 2000 ppm,Total inhibition by 2000 ppm for >40 d
same,Total inhibition (effect on growth of target organism by 2000 ppm APP),Salm Typhimurium S29 [3]; Cooked minced chicken slurry at 8° C. pH 6.42,S. Typhimurium
same,Effect of APP,TAVC,No significant effect
